Patent US20240425574A1, “ANTI-PDGF-B ANTIBODIES AND PHARMACEUTICAL COMPOSITION THEREOF” (Regeneron Pharmaceuticals, Inc., priority 2021, published 2024)
pIC50: −log10 of the molar value. Where two headings read alike, the source gives them in different places. Marks after values point to notes of the source that are not given here.

Experiments:
[1] = test system: Human PDGF-AA; test: FLIPR calcium flux in PASMC (Example 17); assay type: cell-based; conditions: 3 nM PDGF-AA constant
Protocol: (§1) Upon reaching 100% confluency within each well, PDGF driven calcium flux was assessed via the FLIPR® Calcium 5 Assay Kit on the FLIPR Tetra System (Molecular Devices) following the manufacturer's protocol. In brief, complete media was replaced with 50 μL assay media (DMEM-0.1% BSA-1× Penicillin/Streptomycin/L-Glutamine). The Calcium 5 dye was then reconstituted in the supplied buffer in the presence of probenecid. […] Human PDGF-AA, PDGF-BB and PDGF-DD serial dilutions and inhibitory constants were generated on separate dosing plates. A 0.5 nM concentration of PDGF-BB, 1 nM concentration of PDGF-DD and a 3 nM concentration of PDGF-AA were chosen as constants to assess antibody and small molecule inhibition. […] Antibodies were pre-incubated with PDGF proteins for 30 minutes before addition onto the cells via the FLIPR tetra system. […] These calcium traces were analyzed for their Max-Min values using the SoftMax Pro Software (Molecular Devices).

[2] = test system: hypoxia/sugen PAH mice; test: Hypoxia/Sugen PAH mice, therapeutic treatment (Study 1); assay type: in vivo, mouse; conditions: dose mg/kg: H4H13145P 25, Macitentan 30, REGN2176 25
Protocol: For the first study, 14 to 16 weeks old male humanized PDGFRβ^hu-hu mice, (MAID #1639) were used. Mice were separated into treatment groups by weight such that starting body weights were similar among different groups. […] Mice in hypoxia chamber were given VEGF receptor inhibitor Sugen5146 at 20 mg/kg subcutaneously once a week for 6 weeks. The mice were administered antibodies starting on day 21 for 3 weeks as outlined in Table 11. […] Mice were anesthetized with isoflurane and were kept at approximately 37° C. using a heated platform (Heated Hard Pad 1, Braintree Scientific) and circulating heated water pump (T/Pump Classic, Gaymar Industries). The neck area for each mouse was prepared for surgery by depilating over the right common Carotid artery and right Jugular vein. An incision was made, and the right Jugular vein was isolated with care as to not damage the Carotid artery and/or the Vagus nerve. […] The catheter was connected to pressure/volume instrument (MPVS-300, Millar Instruments, Inc.) that measured heart rate as well as both diastolic and systolic right ventricular pressures. […] The parameters analyzed were right ventricular systolic pressures (RVSP), heart rate (HR) and rate of right ventricular pressure rise (dP/dt max). […] RV hypertrophy was calculated by Fulton index as the weight ratio of RV and (LV+septum). […]

[3] = test system: hypoxia/sugen PAH mice; assay type: in vivo, mouse; conditions: Hypoxia/Sugen Mice - Therapeutic dose response; dose mg/kg: H4H13145P 1, Macitentan 30, REGN2176 25
Protocol: For the second study (Study 2), 12 to 14 weeks old male C57/BL mice, (Taconic) were used for the studies. Mice were separated into treatment groups by weight such that starting body weights were similar among different groups. […] Mice in hypoxia chamber were given VEGF receptor inhibitor Sugen5146 at 20 mg/kg subcutaneously once a week for 6 weeks. The mice were administered antibodies starting on day 21 for 3 weeks as outlined in Table 12. By the end of week 6, right ventricular systolic pressure (RVSP) was measured by right heart catheterization and RV hypertrophy was calculated by Fulton index as the weight ratio of RV and (LV+septum). […]
Mice were anesthetized with isoflurane and were kept at approximately 37° C. using a heated platform (Heated Hard Pad 1, Braintree Scientific) and circulating heated water pump (T/Pump Classic, Gaymar Industries). […] The catheter was connected to pressure/volume instrument (MPVS-300, Millar Instruments, Inc.) that measured heart rate as well as both diastolic and systolic right ventricular pressures. […] Readings were quantified from a 60 second interval of the pressure tracing (following a 2 minute period of recording to allow for pressure stabilization). The parameters analyzed were right ventricular systolic pressures (RVSP), heart rate (HR) and rate of right ventricular pressure rise (dP/dt max). […]

[4] = test system: monocrotaline rats; test: Study #2, 5 weeks Monocrotaline severe PAH rats survival (Example 19); assay type: in vivo, rat
Protocol: In order to evaluate the effect of two inhibitory anti-PDGF-B antibodies in the rat monocrotaline model of pulmonary arterial hypertension, 2 studies were performed: study #1 was performed on 4-week Monocrotaline PAH Rats with Preventive Drug Treatment; and study #2 was performed on 5-weeks Monocrotaline Severe PAH Rats Survival with Therapeutic Drug Treatment (Tables 26-27).
Six to seven weeks old male Sprague Dawley rats were used. Rats were separated into treatment groups such that body weights were similar among different groups. […] On day one, rats were subcutaneously administered either 40 mg/kg of monocrotaline or 5 mL/kg or saline as control. On day 28, right ventricular systolic pressure (RVSP) was measured by right heart catheterization and RV hypertrophy was calculated by Fulton index as the weight ratio of RV to (LV+septum). In study #2, rats were subcutaneously administered either 60 mg/kg of monocrotaline or 5 mL/kg of saline. […] Small molecule group was orally administered macitentan at 30 mg/kg daily. Body weight change from day 0-35 were used for general toxicity assessment and animal mortality and median survival time were calculated by day 35.

[5] = test system: monocrotaline rats; test: 4 weeks Monocrotaline PAH rats, preventive treatment (Example 10 study 1); assay type: in vivo, rat
Protocol: Six to seven weeks old male Sprague Dawley rats were used. Rats were separated into treatment groups such that body weights were similar among different groups. […] Standard of care group was orally administered macitentan at 30 mg/kg daily for 28 days. At day one, rats were subcutaneously administered either 40 mg/kg of monocrotaline or 5 mL/kg of saline. By the end of day 28, right ventricular systolic pressure (RVSP) was measured by right heart catheterization and RV hypertrophy was calculated by Fulton index as the weight ratio of RV and (LV+septum). In study 2, rats were subcutaneously administered either 60 mg/kg of monocrotaline or 5 mL/kg of saline. […] Body weight change from day 0-35 were used for general toxicity assessment and animal mortality was calculated by day 35.
Rats were anesthetized with isoflurane and were kept at approximately 37° C. using a heated platform (Heated Hard Pad 1, Braintree Scientific) and circulating heated water pump (T/Pump Classic, Gaymar Industries). The neck area for each rat was prepared for surgery by depilating over the right common Carotid artery and right Jugular vein. An incision was made and the right Jugular vein was isolated with care as to not damage the Carotid artery and/or the Vagus nerve. A piece of 5-0 silk suture was placed under the isolated Jugular vein to allow for retraction of the vessel cranially, then a 23-gauge needle was used to introduce a hole into the Jugular vein. A pressure catheter (Micro-tip catheter transducer SPR-1000, Millar Instruments, Inc.) was inserted into the opening of the Jugular vein and advanced past the right atrium into the right ventricle. The catheter was connected to pressure/volume instrument (MPVS-300, Millar Instruments, Inc.) that measured heart rate as well as both diastolic and systolic right ventricular pressures. These parameters were digitally acquired using a data acquisition system (PowerLab 4/35, AD Instruments). LabChart Pro 7.0 software (AD Instruments) was used to analyze right ventricular pressures. Readings were quantified from a 60 second interval of the pressure tracing (following a 2 minute period of recording to allow for pressure stabilization). The parameters analyzed were right ventricular systolic pressures (RVSP), heart rate (HR) and rate of right ventricular pressure rise (dP/dt max).
After the in vivo hemodynamic measurements, animals were euthanized by exsanguinations under anesthesia and then RV free wall, left ventricle (LV) and septum tissue were harvested and weighted. RV hypertrophy was calculated by Fulton index as the weight ratio of RV and (LV+septum). Then, RV tissue was saved frozen (−80° C.) for biochemical analyses.

[6] = test system: Human PDGF-DD; conditions: read-out: IC50 Calcium Flux, PDGF-DD; PASMC; 1 nM PDGF-DD constant
Protocol: as §1

[7] = biological target: T1, PDGF-BB (Homo sapiens, UniProt P01127); test: FLIPR calcium flux in PASMC (Example 17); assay type: cell-based; set-up: purchased R&D Systems 220-GMP
T1 sequence (P01127 82-190 limits assumed): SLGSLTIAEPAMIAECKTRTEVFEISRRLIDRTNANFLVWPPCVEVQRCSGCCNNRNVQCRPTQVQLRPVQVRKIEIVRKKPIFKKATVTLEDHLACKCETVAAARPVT
Protocol: as §1

[8] = test system: PDGF-DD; conditions: read-out: IC50 Proliferation, PDGF-DD; PASMC; IncuCyte cell confluence at day 6
Protocol: (§2) For calcium flux and proliferation assays, primary Human Pulmonary Smooth Muscle Cells were seeded onto 96-well assay plates at a cell density of 10,000/well and 2,000/well respectively. The smooth muscle cells were cultured in supplier recommended smooth muscle media in a humidified incubator at 37° C. in 5% CO2.
(§3) Proliferation was assessed via the IncuCyte live cell imaging system (Essen BioScience). Following overnight plating, the complete media was replaced with serum free smooth muscle media supplemented with 0.1% BSA. […] Plates were imaged every 3 hours over the course of 7 days and proliferation was determined by measuring cell confluence in the well at day 6 via the IncuCyte Base Analysis software (Sartorius).

[9] = biological target: T1, PDGF-BB; test: IncuCyte proliferation of PASMC (Example 17); assay type: cell-based; set-up: purchased R&D Systems 220-GMP; conditions: IncuCyte cell confluence at day 6
Protocol: as §2, §3

[10] = test system: PDGF-AA; conditions: read-out: IC50 Proliferation, PDGF-AA; PASMC; IncuCyte cell confluence at day 6
Protocol: as §2, §3

[11] = MCT 60 mg/kg rats, treatment from day 14, antibody SC twice per week, Macitentan 30 mg/kg daily gavage
[12] = Monocrotaline Rat - Prevention, dose mg/kg: H4H13145P 25, Macitentan 30, Sotatercept 25

## Cc1ccc(NC(=O)c2ccc(CN3CCN(C)CC3)cc2)cc1Nc1nccc(-c2cccnc2)n1 [Imatinib]
[1]
  pIC50: 6.57

## CCCNS(=O)(=O)Nc1ncnc(OCCOc2ncc(Br)cn2)c1-c1ccc(Br)cc1 [Macitentan, reference compound]
[2]
  % reduction in RV hypertrophy: trend
  Reduction in RVSP: 19-25 mmHg
[3]
  % reduction in RV hypertrophy: trend
  Reduction in RVSP: 19-25 mmHg
[4]; [11]
  Death # by day 35: 11
  Survival rate by day 35: 0%*
  median survival: 20 days
[4]; monocrotaline 60 mg/kg, antibody 25 mg/kg 2 times a week from day 14, macitentan 30 mg/kg daily, day 35
  survival: failed to prolong survival
[5]; [12]
  % reduction in RV hypertrophy: trend
[5]; monocrotaline 40 mg/kg, antibody 25 mg/kg SC 2x/week, Macitentan 30 mg/kg P.O. daily, versus isotype control
  lessening of right ventricular hypertrophy (Fulton Index): failed to reduce
[5]; monocrotaline 40 mg/kg, antibody 25 mg/kg SC 2x/week, Macitentan 30 mg/kg P.O. daily, week 4
  right ventricular systolic pressure elevation: significantly reduced

## COc1ccc(-c2cncc(N[C@@H](C)c3cccc(NC(=O)c4cncc(C)c4)c3)n2)cc1OC [Seralutinib]
[6]
  pIC50: 7.57
[7]; PASMC, 0.5 nM PDGF-BB constant, read-out: IC50 Calcium Flux, PDGF-BB
  pIC50: 8.00
[7]; PDGF-AA, PDGF-DD and PDGF-BB driven calcium flux and proliferation
  inhibition in words: fully inhibited
[7]; range over PDGF-AA, PDGF-DD, PDGF-BB driven calcium flux and proliferation, read-out: IC50 values
  pIC50: 7.57 to 8.22
[8]
  pIC50: 8.22
[9]
  pIC50: 8.22
[1]
  pIC50: 8.00
[10]
  pIC50: 8.05

## Sotatercept: ACVRIIa-Fc, vessel remodeling comparator drug
[5]; [12]
  Reduction in RVSP: 14 mmHg
